Source: patent US7319101B2, “COMT inhibitors for the treatment of depression and impaired cognition” (Hoffmann-La Roche Inc., priority 2003, dated 2008)

Columns and labels:
[1] = target: T1, catechol-O-methyltransferase (COMT) obtained from rat liver (Rattus norvegicus, UniProt P22734); test: COMT inhibition, radiochemical assay with rat liver homogenate (Zürcher et al.); type: biochemical; details: rat liver tissue extract; substrate benzene-1,2-diol 2.5 mM, [3H]SAM 183 μM; 15 min preincubation at 37° C., pH 7.6
T1 construct: from tissue; host or cells: rat liver homogenate
T1 sequence (P22734 1-264): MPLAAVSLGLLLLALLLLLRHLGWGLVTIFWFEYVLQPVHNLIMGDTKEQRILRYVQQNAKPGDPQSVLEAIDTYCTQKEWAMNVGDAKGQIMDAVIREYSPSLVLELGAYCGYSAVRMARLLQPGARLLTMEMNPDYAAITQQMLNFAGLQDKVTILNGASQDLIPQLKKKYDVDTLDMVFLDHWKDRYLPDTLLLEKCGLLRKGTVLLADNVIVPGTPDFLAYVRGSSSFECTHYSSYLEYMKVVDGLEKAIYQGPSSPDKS
Method: The inhibitory activity can be determined in vitro with COMT obtained from rat liver. Rat liver homogenate is incubated in the presence of a suitable substrate as described by Zürcher et al. in J. Neurochem. 1982, 38, 191-195 and the COMT activity is measured.
IC50 values were determined as follows: The inhibitors were dissolved in Me2SO as 1.2 mM stock solution and further diluted with Me2SO. The reactions were performed in standard polypropylene vials. 25 μl of the inhibitor in varying concentrations from 10^−4 to 10^−9 mol L^−1 were mixed with 215 μl freshly prepared buffer-substrate mixture consisting of 170 μl potassium phosphate buffer (0.1 mol L^−1, pH 7.6), 10 μl MgCl2, (0.1 mol L^−1), 10 μl dithiothreitol (0.065 mol L^−1) and 25 μl of tissue extract. The enzyme preparations were preincubated for 15 min at 37° C. The reaction was started by adding 30 μl substrate (benzene-1,2-diol, 0.025 mol L^−1), 10 μl [^3H]SAM (5.5 mmol L^−1, specific activity: 13.36 Bq mol^−1 (3.61 Cimol^−1) and 20 μl deionized H2O, reaching a final substrate concentration of 2.5 mM and a final [^1H]/[^3H]SAM concentration of 183 μM. The reaction was stopped after incubating the vials in a water-bath at 37° C. for 15 min by addition of 200 μl HOAc (5.7%) containing guaiacol (0.1 g L^−1). The reaction vessels were transferred into polyethylene scintillation vials and 3 ml of scintillation fluid (5 g butyl-PBD, dissolved in 200 ml toluene, made up to 1 L with n-hexane) was added.
The samples were counted in a Beckmann LS 6000 TA scintillation counter.

IC50 [1]	melting point	SMILES
29 nM	–	N#Cc1cc(O)c(O)c(C(=O)NC/C=C/[C@H]2O[C@@H](n3cnc4c(N)ncnc43)C(O)C2O)c1 (stereo in doubt) [Example 3, N1-{(E)-3-[(3aR,4R,6R,6aR)-5-(6-amino-9H-purin-9-yl)-3,4-dihydroxytetrahydrofuran-2-yl]prop-2-enyl}-5-cyano-2,3-dihydroxy-benzamide]
21 nM	–	Nc1ncnc2c1ncn2[C@@H]1O[C@H](/C=C/CNC(=O)c2cc(-c3ccc(F)cc3)cc(O)c2O)C(O)C1O (stereo in doubt) [Example 8, N1-{(E)-3-[(3aR,4R,6R,6aR)-5-(6-amino-9H-purin-9-yl)-3,4-dihydroxytetrahydrofuran-2-yl]prop-2-enyl}-5-(4-fluoro-phenyl)-2,3-dihydroxy-benzamide]
608 nM	–	Cc1ccc(Cc2cc(O)c(O)c(C(=O)NC/C=C/[C@H]3O[C@@H](n4cnc5c(N)ncnc54)C(O)C3O)c2)cc1 (stereo in doubt) [Example 13, N1-{(E)-3-[(3aR,4R,6R,6aR)-5-(6-amino-9H-purin-9-yl)-3,4-dihydroxytetrahydrofuran-2-yl]prop-2-enyl}-5-(4-methyl-benzyl)-2,3-dihydroxy-benzamide]
39 nM	–	Nc1ncnc2c1ncn2[C@@H]1O[C@H](/C=C/CNC(=O)c2cc(C(=O)C(F)(F)F)cc(O)c2O)C(O)C1O (stereo in doubt) [Example 4, N1-{(E)-3-[(3aR,4R,6R,6aR)-5-(6-amino-9H-purin-9-yl)-3,4-dihydroxytetrahydrofuran-2-yl]prop-2-enyl}-5-(2,2,2-trifluoro-acetyl)-2,3-dihydroxy-benzamide]
28 nM	123 °C (dec.)	Nc1ncnc2c1ncn2[C@@H]1O[C@H](/C=C/CNC(=O)c2cc(Br)cc(O)c2O)C(O)C1O (stereo in doubt) [Example 2, N1-{(E)-3-[(3aR,4R,6R,6aR)-5-(6-amino-9H-purin-9-yl)-3,4-dihydroxytetrahydrofuran-2-yl]prop-2-enyl}-5-bromo-2,3-dihydroxy-benzamide]
213 nM	–	Cc1ccc(S(=O)(=O)c2cc(O)c(O)c(C(=O)NC/C=C/[C@H]3O[C@@H](n4cnc5c(N)ncnc54)C(O)C3O)c2)cc1 (stereo in doubt) [Example 18, N1-{(E)-3-[(3aR,4R,6R,6aR)-5-(6-amino-9H-purin-9-yl)-3,4-dihydroxytetrahydrofuran-2-yl]prop-2-enyl}-5-(toluene-4-sulfonyl)-2,3-dihydroxy-benzamide]
35 nM	–	Nc1ncnc2c1ncn2[C@@H]1O[C@H](/C=C/CNC(=O)c2cc(C(F)(F)F)cc(O)c2O)C(O)C1O (stereo in doubt) [Example 16, N1-{(E)-3-[(3aR,4R,6R,6aR)-5-(6-amino-9H-purin-9-yl)-3,4-dihydroxytetrahydrofuran-2-yl]prop-2-enyl}-5-trifluoromethyl-2,3-dihydroxy-benzamide]
9 nM	–	Nc1ncnc2c1ncn2C1OC(C=CCNC(=O)c2cc([N+](=O)[O-])cc(O)c2O)C(O)C1O (stereo not drawn) [comparative example, N-{3-[5-(6-Amino-purin-9-yl)-3,4-dihydroxy-tetrahydro-furan-2-yl]-allyl}-2,3-dihydroxy-5-nitro-benzamide, reference compound]
23 nM	133 to 137 °C (dec.)	Nc1ncnc2c1ncn2[C@@H]1O[C@H](/C=C/CNC(=O)c2cc(-c3ccncc3)cc(O)c2O)C(O)C1O (stereo in doubt) [Example 12, N1-{(E)-3-[(3aR,4R,6R,6aR)-5-(6-amino-9H-purin-9-yl)-3,4-dihydroxytetrahydrofuran-2-yl]prop-2-enyl}-5-pyridin-4-yl-2,3-dihydroxy-benzamide]
27 nM	–	Nc1ncnc2c1ncn2[C@@H]1O[C@H](/C=C/CNC(=O)c2cc(-c3nccs3)cc(O)c2O)C(O)C1O (stereo in doubt) [Example 10, N1-{(E)-3-[(3aR,4R,6R,6aR)-5-(6-amino-9H-purin-9-yl)-3,4-dihydroxytetrahydrofuran-2-yl]prop-2-enyl}-5-thiazol-2-yl-2,3-dihydroxy-benzamide]
2600 nM	134 °C (dec.)	Nc1ncnc2c1ncn2[C@@H]1O[C@H](/C=C/CNC(=O)c2cccc(O)c2O)C(O)C1O (stereo in doubt) [Example 1, N1-{(E)-3-[(3aR,4R,6R,6aR)-5-(6-amino-9H-purin-9-yl)-3,4-dihydroxytetrahydrofuran-2-yl]prop-2-enyl}-2,3-dihydroxy-benzamide]
34 nM	–	Cc1ccc(C(=O)c2cc(O)c(O)c(C(=O)NC/C=C/[C@H]3O[C@@H](n4cnc5c(N)ncnc54)C(O)C3O)c2)cc1 (stereo in doubt) [Example 19, N1-{(E)-3-[(3aR,4R,6R,6aR)-5-(6-amino-9H-purin-9-yl)-3,4-dihydroxy-tetrahydrofuran-2-yl]prop-2-enyl}-5-(4-methyl-benzoyl)-2,3-dihydroxy-benzamide]
2000 nM	–	CN(C)C(=O)c1cc(O)c(O)c(C(=O)NC/C=C/[C@H]2O[C@@H](n3cnc4c(N)ncnc43)C(O)C2O)c1 (stereo in doubt) [Example 14, N1-{(E)-3-[(3aR,4R,6R,6aR)-5-(6-amino-9H-purin-9-yl)-3,4-dihydroxytetrahydrofuran-2-yl]prop-2-enyl}-5-dimethylcarbamoyl-2,3-dihydroxy-benzamide]
97 nM	–	CN(C)C(=O)/C=C/c1cc(O)c(O)c(C(=O)NC/C=C/[C@H]2O[C@@H](n3cnc4c(N)ncnc43)C(O)C2O)c1 (stereo in doubt) [Example 15, N1-{(E)-3-[(3aR,4R,6R,6aR)-5-(6-amino-9H-purin-9-yl)-3,4-dihydroxytetrahydrofuran-2-yl]prop-2-enyl}-5-((E)-2-dimethylcarbamoyl-vinyl)-2,3-dihydroxy-benzamide]
44 nM	–	Nc1ncnc2c1ncn2[C@@H]1O[C@H](/C=C/CNC(=O)c2cc(Cl)cc(O)c2O)C(O)C1O (stereo in doubt) [Example 7, N1-{(E)-3-[(3aR,4R,6R,6aR)-5-(6-amino-9H-purin-9-yl)-3,4-dihydroxytetrahydrofuran-2-yl]prop-2-enyl}-5-chloro-2,3-dihydroxy-benzamide]
42 nM	–	Nc1ncnc2c1ncn2[C@@H]1O[C@H](/C=C/CNC(=O)c2cc(C(=O)c3ccncc3)cc(O)c2O)C(O)C1O (stereo in doubt) [Example 5, N1-{(E)-3-[(3aR,4R,6R,6aR)-5-(6-amino-9H-purin-9-yl)-3,4-dihydroxytetrahydrofuran-2-yl]prop-2-enyl}-5-(pyridine-4-carbonyl)-2,3-dihydroxy-benzamide]
83 nM	–	Nc1ncnc2c1ncn2[C@@H]1O[C@H](/C=C/CNC(=O)c2cc(C(=O)C3CCCCC3)cc(O)c2O)C(O)C1O (stereo in doubt) [Example 6, N1-{(E)-3-[(3aR,4R,6R,6aR)-5-(6-amino-9H-purin-9-yl)-3,4-dihydroxytetrahydrofuran-2-yl]prop-2-enyl}-5-cyclohexanecarbonyl-2,3-dihydroxy-benzamide]
23 nM	–	Cc1ccc(-c2cc(O)c(O)c(C(=O)NC/C=C/[C@H]3O[C@@H](n4cnc5c(N)ncnc54)C(O)C3O)c2)cc1 (stereo in doubt) [Example 9, N1-{(E)-3-[(3aR,4R,6R,6aR)-5-(6-amino-9H-purin-9-yl)-3,4-dihydroxytetrahydrofuran-2-yl]prop-2-enyl}-5-p-tolyl-2,3-dihydroxy-benzamide]
